How the values were obtained:
[1] = system: P. acnes NCTC 737; experiment: Minimum inhibitory concentration (MIC) assay; format: cell-based, Propionibacterium acnes; details: copper salt alone; P. acnes NCTC 737
Excerpt: (§1) (a) Minimum Inhibitory Concentration (MIC) Assay
(§2) The culture media were as described above.
(§3) The assays included both negative (culture medium with no micro-organisms) and positive (culture medium plus diluting solvent plus micro-organism) controls.

[2] = system: P. acnes NCTC 737; experiment: Disc diffusion assay (DDA), also supplemented; details: for DDA + lipid / DDA + salt & lipid / DDA + salt: copper salt alone, 200 μg per disc (silicate 62 μg); for DDA + lipid: 1% (v/v) Tween 80; for DDA + salt & lipid: salt and 1% (v/v) Tween 80; for DDA + salt: sodium chloride (100 mM);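 for all read-outs here: paper disc carrying compound placed on inoculated Wilkins-Chalgren Anaerobe agar pH 6.0, with lipid or NaCl supplement where listed, anaerobic 37 °C for 72 h, inhibition zone diameter read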
Experimental: (§6) The propionibacteria were cultured and maintained on Wilkins-Chalgren Anaerobe Medium (agar and broth) at pH 6.0; all cultures were incubated anaerobically at 37° C. for 72 hours.
(d) Disc Diffusion Assay (DDA)
(§7) A sterile paper disc was impregnated with a sample of the test compound in a suitable solvent and 30 minutes allowed for the solvents to evaporate (where possible). The disc was then placed on an agar plate onto which the test micro-organism had been inoculated. The plate was then incubated under the conditions described above, following which it was examined visually for signs of bacterial growth. […] The diameter of this zone of “inhibition” was measured using a ProtoCOL™ automated zone sizer (Synbiosis, Cambridge, UK).
(f) Supplemented Disc Diffusion Assays
(§8) For assays using Propionibacterium spp. strains the supplements used in the examples below were lipid (either Tween™ 80 or triolein, both at 1% v/v) and sodium chloride (100 mM).

[3] = system: S. aureus ATCC 29213; experiment: Disc diffusion assay (DDA), also supplemented; details: for DDA + lipid / DDA + salt & serum / DDA + salt: copper salt alone, 200 μg per disc (silicate 62 μg); for DDA + lipid: Tween 80 at 1% v/v; for DDA + salt & serum: salt and horse serum (5% v/v); for DDA + salt: sodium chloride (100 mM)
Experimental: The staphylococci were cultured and maintained on Mueller-Hinton Medium (agar and broth) at pH 7.2; cultures were incubated aerobically at 37° C. for 19-20 hours.
(d) Disc Diffusion Assay (DDA)
as §7
(f) Supplemented Disc Diffusion Assays
(§9) For assays using S. aureus ATCC 29213 the supplements used were sodium chloride (100 mM), lipid (Tween™ 80 at 1% v/v) and horse serum (5% v/v).

[4] = system: S. aureus ATCC 29213; experiment: Synergy disc diffusion assay (SDDA), also supplemented; details: for SS SDDA with TBHQ / SDDA with TBHQ: copper salt + TBHQ on one disc, 200 μg of each (silicate 62 μg); for SS SDDA with TBHQ / SS SDDA area increase / SS SDDA increase: salt and serum supplements; for SDDA with TBHQ / SDDA increase / SDDA area increase: unsupplemented; for SDDA increase: copper salt + TBHQ vs larger zone of either compound alone; for SS SDDA area increase / SS SDDA increase / SDDA area increase: copper salt + TBHQ;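 for all read-outs here: disc diffusion on Mueller-Hinton agar at pH 7.2, aerobic incubation at 37 °C lasting 19-20 h, two compounds assessed jointly for combined antimicrobial effect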
Experimental: (e) Synergy Disc Diffusion Assay (SDDA)
(§10) This is a variation on the DDA method, in which two compounds are tested together for their combined antimicrobial activity.
(§11) Two test compounds A and B were placed on a single paper disc and the above described DDA procedure repeated.
(f) Supplemented Disc Diffusion Assays
as §9

[5] = system: P. acnes NCTC 737; experiment: Minimum bactericidal concentration (MBC) assay; format: cell-based, Propionibacterium acnes; details: copper salt alone; P. acnes NCTC 737
Experimental: (§4) (b) Minimum Bactericidal Concentration (MBC) Assay
(§5) Following incubation they were examined visually for bacterial growth.

[6] = system: S. aureus ATCC 29213; experiment: Minimum inhibitory concentration (MIC) assay; format: cell-based, Staphylococcus aureus; details: copper salt alone; S. aureus ATCC 29213
Excerpt: as §1, §2, §3

[7] = system: P. acnes NCTC 737; experiment: Synergy disc diffusion assay (SDDA), also supplemented; details: for SL SDDA with TBHQ / SDDA with TBHQ: copper salt + TBHQ on one disc, 200 μg of each (silicate 62 μg); for SL SDDA with TBHQ / SL SDDA area increase / SL SDDA increase: salt and lipid (1% (v/v) Tween 80); for SDDA with TBHQ / SDDA increase / SDDA area increase: unsupplemented; for SDDA increase: copper salt + TBHQ vs larger zone of either compound alone; for SL SDDA area increase / SL SDDA increase / SDDA area increase: copper salt + TBHQ
Experimental: as §6
(e) Synergy Disc Diffusion Assay (SDDA)
as §10, §11
(f) Supplemented Disc Diffusion Assays
as §8

[8] = system: S. aureus ATCC 29213; experiment: Minimum bactericidal concentration (MBC) assay; format: cell-based, Staphylococcus aureus; details: copper salt alone; S. aureus ATCC 29213
Experimental: as §4, §5

SMILES | MIC [1] [µg/mL] | MIC/MBC ratio [1] | DDA + lipid [2] [mm] | DDA + salt & lipid [2] [mm] | DDA + salt [2] [mm] | DDA + lipid [3] [mm] | DDA + salt & serum [3] [mm] | DDA + salt [3] [mm] | SS SDDA with TBHQ [4] [mm] | SDDA with TBHQ [4] [mm] | SDDA increase [4] [mm] | SS SDDA area increase [4] [%] | SS SDDA increase [4] [mm] | SDDA area increase [4] [%] | MBC [5] [µg/mL] | MIC [6] [µg/mL] | SL SDDA with TBHQ [7] [mm] | SDDA with TBHQ [7] [mm] | SDDA increase [7] [mm] | SL SDDA area increase [7] [%] | further results
[Br][Cu][Br] [Copper (II) bromide] | 7.8 | 0.125 | 42.37 | 49.23 | 47.94 | 0 | 0 | 0 | 44.42 | 59.26 | 18.84 | 3.42 | 0.74 | 114.95 | 62.5 | >250 | 65.39 | 66.3 | 11.47 | 76.46 | SL SDDA increase [7]: 16.17 mm; SDDA area increase [7]: 46.18%; MBC [8]: >250 µg/mL
[Cl-].[Cu+2].[Cu+2].[OH-].[OH-].[OH-] [Copper (II) oxychloride] | 0.98 | 0.06 | 51.65 | 52.04 | 54.47 | 0 | 0 | 0 | 43.89 | 52.63 | 12.21 | 0.96 | 0.21 | 69.54 | 15.6 | >250 | 54.02 | 59.45 | 8.24 | 7.76 | DDA [2]: 51.21 mm; DDA [3]: 0 mm; SL SDDA increase [7]: 1.98 mm; SDDA area increase [7]: 34.77%; MBC [8]: >250 µg/mL
